Source: patent publication US20050187152A1, “Prevention and treatment of hypergastrinemia” (Aphton Corporation, priority 1998, published 2005)
Values belong to the molecule of their own block, whether it stands above or below them. Where no end group is shown, it is not given here.

Key:
[1] = system: plasma gastrin; conditions: cited from earlier work
[2] = system: crypts and tumors of the small and large intestine; experiment: Bromodeoxyuridine in situ proliferation index in Min mice; assay type: in vivo, mouse; conditions: hypergastrinemic mice
Procedure: One hour prior to termination, mice were injected with DNA analogue bromodeoxyuridine in order to determine the comparative in situ proliferation activity. The samples were formalin fixed, paraffin embedded, sections were cut and stained with an anti-bromodeoxyuridine antibody.
Serum gastrin level was measured by RIA. Prior to end of treatment, proliferative index was determined by the bromodeoxyuridine method. • Group 1.

[3] = system: plasma gastrin; conditions: cited from earlier work; remark: listed apart in the source
[4] = system: Min mouse model of familial adenomatous polyposis
Procedure: Accordingly, the effect of gastrin neutralization on Min mouse survival was determined.
The Min mice used in the study were bred within the Academic Unit of Cancer Studies at Nottingham University (U.K.) on a C57/BL background. […] The Min positive mice were then placed into each arm of the therapy on an ongoing basis.
Gastrin neutralization was achieved by using an immunogen, i.e. the gastrin immunogen preparation, which is composed of the amino terminal domain of gastrin-17 linked, via an amino acid spacer, to diphtheria toxoid which acts as the immunogenic carrier. The antibodies raised by virtue of the design of the immunogen, cross-react with both amidated and glycine-extended gastrin-17, known proliferative forms of gastrin. Min mice were immunized s.c. with the hG17-DT immunogen (100 mg/mouse) at week 4, with subsequent injections at 3 weekly intervals. […] The hG17-DT immunogen was administered to mice at 4 weeks of age to examine its effect on mice with an established tumor burden.
• Group 1. OME 75 mg/kg daily oral treatment • Group 2. OME+GSI 100 mg oral dose/mouse day 0 and every 3 weeks • Group 3. Oral vehicle+control immunogen • Group 4. Oral vehicle−control immunogen

[5] = system: plasma gastrin; conditions: 400 μmol/kg, 14 mg/kg, 10 weeks; cited from earlier work
[6] = system: rabbit anti-G17 (C-terminal) antiserum; experiment: Displacement of radiolabelled G17 from C-terminal specific antiserum; assay type: binding; conditions: antiserum 100 μg/ml on solid phase, radiolabelled G17 100 pg/ml; FIG. 12
Procedure: (§1) Antisera were absorbed onto a solid phase at a concentration of 100 μg/ml and displacement was determined in a competitive assay with a fixed concentration of radiolabelled G17 (100 pg/ml) and increasing concentrations of unlabelled ligands (1-25,000 pg/ml).

[7] = molecular target: rabbit anti-human G17(1-9):DT (N-terminal) antiserum; experiment: Displacement of radiolabelled G17 from N-terminal specific antiserum; assay type: binding; conditions: antiserum 100 μg/ml on solid phase, radiolabelled G17 100 pg/ml; FIG. 11
Procedure: as §1

[8] = system: polypoid carcinomas from the large and small intestine of Min mice; experiment: In vitro proliferation of Min mouse polypoid carcinomas, tetrazolium-based colorimetric assay; assay type: cell-based
Procedure: Polypoid carcinomas have been established in vitro from the large and small intestine of Min mice. Proliferation was assessed by a tetrazolium-based colorimetric ELISA assay.

[9] = patients receiving 40 mg daily for eight years
[10] = same dose (400 μmol/kg, 14 mg/kg)

Molecule: COc1ccc2[nH]c([S+]([O-])Cc3ncc(C)c(OC)c3C)nc2c1 (centres unmarked) [omeprazole]
markedly elevated gastrin levels ([1]; occasionally, long term treatment, 20-60 mg/day): 10 fold | prevalence of micronodular hyperplasia in atrophic gastritis [1, 9]: 48% | prevalence of micronodular hyperplasia in interstitial gastritis [1, 9]: 19.6% | prevalence of micronodular hyperplasia in superficial corpus gastritis [1, 9]: 3.6% | proliferating cells, normal colonic mucosa ([2]; increased from 9.46%, p<0.05 Mann-Whitney): 20.1% | proliferating cells, colonic neoplasia ([2]; increased from 22.3%, p<0.01): 35.0% | increase in gastrin compared to controls ([3]; female rats, long-term (1-year) daily 400 μmol/kg, 14 mg/kg): 15 fold | ECL cell density increase [3, 10]: about 300% | increase of gastrin levels [3, 10]: 10 fold | 50% survival ([4]; Example 2, OME 75 mg/kg daily oral, control group 16 weeks, p=0.0001 log rank): 8 weeks | effect of omeprazole-induced hypergastrinemia on survival of Min mice ([4]; high daily doses of omeprazole): decreases the survival | median survival ([4]; omeprazole-induced hypergastrinemia, reduced from approximately 10 weeks): ~6 weeks | ECL density increase at the end of treatment [5]: 37% | increase in plasma gastrin during treatment [5]: threefold | stomach weight increase at the end of treatment [5]: 34%

IC25, displacement of radiolabelled G17 [6]: 0.5 ng/mL
Molecule: G34: gastrin-34, unlabelled ligand in the displacement assay (QLGPQGPPHLVADPSKKQGPWLEEEEEAYGWMDF; ends and bridges not checked; UniProt P01350 59-92, looked up) [Peptide G34]

50% inhibitory concentration (IC50), displacement of radiolabelled G17 [7]: 3.5 ng/mL | 50% inhibitory concentration (IC50), displacement of radiolabelled G17 [6]: 0.8 ng/mL
Molecule: G17: gastrin-17, unlabelled ligand in the displacement assay [Peptide G17]

Molecule: amidated gastrin: amidated gastrin added to Min mouse tumor cultures (QGPWLEEEEEAYGWMDF-NH2; ends and bridges not checked; UniProt P01350 76-92, looked up)
proliferation of large intestinal tumor in vitro [8]: not increased | proliferation of small intestinal tumor in vitro [8]: not increased
